Assay results from ChEMBL document CHEMBL1201862, “PubChem BioAssay data set” (2004).
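Compound exposure: 48 hours, 5 concentrations, 96-well plates. At the GI50, growth is halved.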 Active and inactive are the calls of the source. Cut-off read from the data, not from the text of the source: active = GI50 up to about 1.1 µM and inactive = higher.

Tests used:
Experiment in all cases: NCI anticancer screen, dose series, 48 h
[1] = tested on: HOP-92
[2] = tested on: A498
[3] = tested on: HT-29
[4] = tested on: RXF 393
[5] = tested on: HCC 2998
[6] = tested on: SF-268
[7] = tested on: SK-MEL-5
[8] = tested on: SK-OV-3
[9] = tested on: LOX IMVI
[10] = tested on: SF-539
[11] = tested on: HOP-62
[12] = tested on: SW-620
[13] = tested on: NCI-H460
[14] = tested on: KM12
[15] = tested on: UO-31
[16] = tested on: M14
[17] = tested on: SK-MEL-2
[18] = tested on: HL-60

| SMILES | GI50 [1] | GI50 [2] | GI50 [3] | GI50 [4] | GI50 [5] | GI50 [6] | GI50 [7] | GI50 [8] | GI50 [9] | GI50 [10] | GI50 [11] | GI50 [12] | GI50 [13] | GI50 [14] | GI50 [15] | GI50 [16] | GI50 [17] | GI50 [18] |
| --- | --- | --- | --- | --- | --- | --- | --- | --- | --- | --- | --- | --- | --- | --- | --- | --- | --- | --- |
| C[n+]1c2ccccc2cc2c(CNC(CCCNC(=N)N)C(=O)O)cccc21 (stereo not given) | 1.3 µM (inactive) | 3.51 µM (inactive) | 0.303 µM (active) | 0.0458 µM (active) | 2.24 µM (inactive) | 0.244 µM (active) | 2.21 µM (inactive) | 1.99 µM (inactive) | 0.493 µM (active) | 1.23 µM (inactive) | 2.7 µM (inactive) | 0.378 µM (active) | 1.9 µM (inactive) | 0.448 µM (active) | 0.959 µM (active) | 3.31 µM (inactive) | 4.03 µM (inactive) | 0.149 µM (active) |
| O=C(O)Cn1c(=O)[nH]c(=O)c2[nH]cnc21 | – | > 100 µM (inactive) | > 100 µM (inactive) | > 100 µM (inactive) | > 100 µM (inactive) | > 100 µM (inactive) | > 100 µM (inactive) | > 100 µM (inactive) | > 100 µM (inactive) | > 100 µM (inactive) | > 100 µM (inactive) | > 100 µM (inactive) | > 100 µM (inactive) | > 100 µM (inactive) | > 100 µM (inactive) | > 100 µM (inactive) | > 100 µM (inactive) | > 100 µM (inactive) |
| N=C(N)NNC(=O)CCn1[nH]c(=O)c(Cl)c(Cl)c1=O | – | – | > 100 µM (inactive) | > 100 µM (inactive) | > 100 µM (inactive) | > 100 µM (inactive) | > 100 µM (inactive) | > 100 µM (inactive) | > 100 µM (inactive) | > 100 µM (inactive) | > 100 µM (inactive) | > 100 µM (inactive) | > 100 µM (inactive) | > 100 µM (inactive) | > 100 µM (inactive) | > 100 µM (inactive) | > 100 µM (inactive) | > 100 µM (inactive) |
| Cc1ccc(C)c(NC(=O)CCC(=O)CC(=O)C(C)(C)C)c1 | > 100 µM (inactive) | > 100 µM (inactive) | > 100 µM (inactive) | > 100 µM (inactive) | > 100 µM (inactive) | > 100 µM (inactive) | > 100 µM (inactive) | > 100 µM (inactive) | > 100 µM (inactive) | > 100 µM (inactive) | > 100 µM (inactive) | > 100 µM (inactive) | > 100 µM (inactive) | > 100 µM (inactive) | > 100 µM (inactive) | > 100 µM (inactive) | > 100 µM (inactive) | – |
| COc1ccc2c(c1)N1CCc3cc(OC)c(OC)cc3C1C2 (stereo not given) | 79.8 µM (inactive) | 41.4 µM (inactive) | 70.3 µM (inactive) | 65 µM (inactive) | 51.1 µM (inactive) | > 100 µM (inactive) | – | > 100 µM (inactive) | 98.6 µM (inactive) | > 100 µM (inactive) | > 100 µM (inactive) | > 100 µM (inactive) | 52.4 µM (inactive) | 89.1 µM (inactive) | 85.9 µM (inactive) | – | 87.5 µM (inactive) | 26.2 µM (inactive) |
| Cc1ccc(NC(=O)CSc2nnc(-c3ccc(/N=C\c4ccc(Cl)cc4)cc3)o2)cc1 | – | – | > 100 µM (inactive) | > 100 µM (inactive) | – | > 100 µM (inactive) | > 100 µM (inactive) | > 100 µM (inactive) | > 100 µM (inactive) | – | > 100 µM (inactive) | > 100 µM (inactive) | > 100 µM (inactive) | > 100 µM (inactive) | > 100 µM (inactive) | > 100 µM (inactive) | > 100 µM (inactive) | > 100 µM (inactive) |
| CC(C)(C)c1ccc2c(c1)C(O)(c1ccccc1)c1cc(C(C)(C)C)ccc1C2(O)C(F)(F)F (stereo not given) | 1.97 µM (inactive) | 1.83 µM (inactive) | 1.57 µM (inactive) | 1.82 µM (inactive) | 2.1 µM (inactive) | 2.27 µM (inactive) | – | 3.24 µM (inactive) | 1.82 µM (inactive) | 1.74 µM (inactive) | 1.29 µM (inactive) | 1.88 µM (inactive) | 1.61 µM (inactive) | 1.93 µM (inactive) | 2.11 µM (inactive) | 1.92 µM (inactive) | 1.76 µM (inactive) | 2.29 µM (inactive) |
| COC(=O)N/N=C(\C)C(CN1CCCCC1)C(C1=C(O)c2ccccc2OC1)c1ccccc1 (stereo not given) | – | > 100 µM (inactive) | > 100 µM (inactive) | 17.9 µM (inactive) | – | > 100 µM (inactive) | > 100 µM (inactive) | > 100 µM (inactive) | > 100 µM (inactive) | > 100 µM (inactive) | > 100 µM (inactive) | > 100 µM (inactive) | > 100 µM (inactive) | > 100 µM (inactive) | 72.4 µM (inactive) | > 100 µM (inactive) | > 100 µM (inactive) | > 100 µM (inactive) |
| OC(CCl)CN1CC[N+]2(CC1)CC[N+]1(CCN(CC(O)CCl)CC1)CC2 (stereo not given) [PROSPIDIUM CHLORIDE] | > 50 µM (inactive) | > 50 µM (inactive) | > 50 µM (inactive) | > 50 µM (inactive) | > 50 µM (inactive) | > 50 µM (inactive) | > 50 µM (inactive) | > 50 µM (inactive) | – | > 50 µM (inactive) | – | > 50 µM (inactive) | > 50 µM (inactive) | > 50 µM (inactive) | > 50 µM (inactive) | > 50 µM (inactive) | > 50 µM (inactive) | > 50 µM (inactive) |
| COCOC1CCCC[C@@]1(OCCOCCO[C@@]1(c2ccccc2)CCCC[C@H]1OCOC)c1ccccc1 (stereo not given in full) | – | – | > 100 µM (inactive) | 23.1 µM (inactive) | > 100 µM (inactive) | > 100 µM (inactive) | – | 67.9 µM (inactive) | > 100 µM (inactive) | – | > 100 µM (inactive) | > 100 µM (inactive) | > 100 µM (inactive) | > 100 µM (inactive) | > 100 µM (inactive) | 44.7 µM (inactive) | > 100 µM (inactive) | > 100 µM (inactive) |
| O=C(Nc1ccn(CCI)c(=O)n1)c1ccccc1 | > 100 µM (inactive) | > 100 µM (inactive) | > 100 µM (inactive) | > 100 µM (inactive) | – | > 100 µM (inactive) | > 100 µM (inactive) | > 100 µM (inactive) | > 100 µM (inactive) | > 100 µM (inactive) | > 100 µM (inactive) | > 100 µM (inactive) | > 100 µM (inactive) | > 100 µM (inactive) | > 100 µM (inactive) | > 100 µM (inactive) | > 100 µM (inactive) | > 100 µM (inactive) |
| CC(=O)OC1CCn2nnc(CO[Si](C)(C)C(C)(C)C)c21 (stereo not given) | – | – | > 100 µM (inactive) | > 100 µM (inactive) | > 100 µM (inactive) | – | > 100 µM (inactive) | > 100 µM (inactive) | – | > 100 µM (inactive) | – | > 100 µM (inactive) | > 100 µM (inactive) | > 100 µM (inactive) | > 100 µM (inactive) | > 100 µM (inactive) | > 100 µM (inactive) | – |
| Cc1cc(N(CCC#N)S(=O)(=O)c2ccccc2)ccc1/C=C1\N=C(c2ccc(Cl)cc2)OC1=O | > 100 µM (inactive) | > 100 µM (inactive) | > 100 µM (inactive) | > 100 µM (inactive) | > 100 µM (inactive) | > 100 µM (inactive) | > 100 µM (inactive) | – | > 100 µM (inactive) | > 100 µM (inactive) | – | > 100 µM (inactive) | > 100 µM (inactive) | > 100 µM (inactive) | > 100 µM (inactive) | > 100 µM (inactive) | > 100 µM (inactive) | > 100 µM (inactive) |
| O=c1[nH]c(=O)n(C2CC(O)C(CO)O2)cc1C#Cc1ccc(F)cc1 (stereo not given) | – | – | > 100 µM (inactive) | – | > 100 µM (inactive) | > 100 µM (inactive) | > 100 µM (inactive) | > 100 µM (inactive) | > 100 µM (inactive) | > 100 µM (inactive) | > 100 µM (inactive) | > 100 µM (inactive) | > 100 µM (inactive) | > 100 µM (inactive) | > 100 µM (inactive) | > 100 µM (inactive) | > 100 µM (inactive) | – |
| CN(O)C(=O)Cc1ccccc1 | > 100 µM (inactive) | – | > 100 µM (inactive) | > 100 µM (inactive) | > 100 µM (inactive) | > 100 µM (inactive) | > 100 µM (inactive) | > 100 µM (inactive) | > 100 µM (inactive) | > 100 µM (inactive) | > 100 µM (inactive) | > 100 µM (inactive) | > 100 µM (inactive) | > 100 µM (inactive) | > 100 µM (inactive) | > 100 µM (inactive) | – | > 100 µM (inactive) |
| O=C(CC1=Nc2nnc(CCCCCCCc3nnc4n3C(=O)C(CC(=O)c3ccccc3)=N4)n2C1=O)c1ccccc1 | > 100 µM (inactive) | > 100 µM (inactive) | > 100 µM (inactive) | > 100 µM (inactive) | > 100 µM (inactive) | > 100 µM (inactive) | > 100 µM (inactive) | > 100 µM (inactive) | > 100 µM (inactive) | > 100 µM (inactive) | > 100 µM (inactive) | > 100 µM (inactive) | > 100 µM (inactive) | > 100 µM (inactive) | > 100 µM (inactive) | > 100 µM (inactive) | – | > 100 µM (inactive) |
| CCOC(=O)c1nc(C)oc1C(F)(F)F | > 100 µM (inactive) | > 100 µM (inactive) | > 100 µM (inactive) | > 100 µM (inactive) | > 100 µM (inactive) | > 100 µM (inactive) | – | > 100 µM (inactive) | > 100 µM (inactive) | > 100 µM (inactive) | > 100 µM (inactive) | > 100 µM (inactive) | > 100 µM (inactive) | > 100 µM (inactive) | > 100 µM (inactive) | > 100 µM (inactive) | > 100 µM (inactive) | > 100 µM (inactive) |
